# Source: patent US6511666B1, “Diagnostics and treatments of periodontal disease” (priority 1995, dated 2003)
# Key:
# [1] = target: T1, 45 kDa Arg-specific proteinase (Porphyromonas gingivalis, UniProt P28784); assay: biochemical; type: biochemical, P. gingivalis W50; conditions: for activity at 100 µM / activity at 1000 µM / activity at 10000 µM: read-out: Activity (%) of the 45 kDa Arg-specific proteinase
# T1 construct: made in house; host or cells: native protein purified from sonicate of P. gingivalis W50 cells (Q-sepharose, Superose 12, Arg-sepharose 200 mM arginine eluant, Mono Q)
# T1 sequence (P28784 228-719): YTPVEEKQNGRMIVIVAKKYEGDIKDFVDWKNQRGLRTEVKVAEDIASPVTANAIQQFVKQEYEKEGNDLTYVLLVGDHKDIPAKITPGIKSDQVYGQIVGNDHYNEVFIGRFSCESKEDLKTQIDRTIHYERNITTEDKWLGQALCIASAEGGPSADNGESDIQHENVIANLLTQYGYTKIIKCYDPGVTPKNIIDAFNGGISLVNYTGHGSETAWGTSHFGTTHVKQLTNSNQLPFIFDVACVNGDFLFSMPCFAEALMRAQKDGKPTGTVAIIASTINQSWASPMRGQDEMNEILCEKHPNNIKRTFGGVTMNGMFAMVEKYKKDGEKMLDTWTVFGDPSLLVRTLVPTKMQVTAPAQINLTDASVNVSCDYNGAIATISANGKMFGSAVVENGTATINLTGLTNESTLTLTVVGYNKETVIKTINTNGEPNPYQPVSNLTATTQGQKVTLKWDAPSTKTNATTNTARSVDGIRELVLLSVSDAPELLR
# [2] = target: 48 kDa Lys-specific proteinase (PrtK48) (Porphyromonas gingivalis, UniProt Q51817); type: biochemical, P. gingivalis W50
# 48 kDa Lys-specific proteinase (PrtK48), sequence (Q51817 229-680 limits assumed): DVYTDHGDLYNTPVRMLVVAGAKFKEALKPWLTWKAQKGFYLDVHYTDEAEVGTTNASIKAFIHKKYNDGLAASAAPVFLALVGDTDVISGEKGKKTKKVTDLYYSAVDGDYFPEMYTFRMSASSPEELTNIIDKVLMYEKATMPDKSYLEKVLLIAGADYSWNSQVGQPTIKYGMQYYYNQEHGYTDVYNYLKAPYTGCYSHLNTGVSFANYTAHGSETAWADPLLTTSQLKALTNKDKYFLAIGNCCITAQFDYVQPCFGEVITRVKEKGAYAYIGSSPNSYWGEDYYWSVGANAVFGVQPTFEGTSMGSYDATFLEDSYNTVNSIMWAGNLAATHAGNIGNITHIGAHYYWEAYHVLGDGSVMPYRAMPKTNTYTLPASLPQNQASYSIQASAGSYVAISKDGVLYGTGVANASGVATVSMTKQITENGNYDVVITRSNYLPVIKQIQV
# [3] = target: PrtR45, 45 kDa Arg-specific proteinase (Porphyromonas gingivalis W50); assay: cell-based or functional assay
# PrtR45, 45 kDa Arg-specific proteinase (Porphyromonas gingivalis W50), sequence (B2RM93 225-247): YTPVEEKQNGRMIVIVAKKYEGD
# [4] = compound 1.0 mM, incubation also contained 1.0 mM 2-mercaptoethanol
# [5] = compound 10.0 mM, incubation also contained 1.0 mM 2-mercaptoethanol
compound,measurement,setting,value
"NCCc1ccc(S(=O)(=O)F)cc1 [AEBSF, [4-(2-aminoethyl)-benzenesulfonylfluoride]]",Effect on the Arg-specific 45 kDa enzyme (in words),[1],not inhibited
same,Activity (%) of the 45 kDa Arg-specific proteinase,[1]; [4],93%
same,Activity (%) of the 45 kDa Arg-specific proteinase,[1]; [5],80%
O=C(O)CN(CCN(CC(=O)O)CC(=O)O)CC(=O)O [EDTA],Effect on the Lys-specific enzyme (in words),[2],not inhibited
same,Effect on the Arg-specific 45 kDa enzyme (in words),[1],inhibited
same,Activity (%) of the 45 kDa Arg-specific proteinase,"[1]; EDTA +Ca2+ 50.0 mM, incubation also contained 1.0 mM 2-mercaptoethanol",97%
same,Activity (%) of the 45 kDa Arg-specific proteinase,[1]; [4],100%
same,Activity (%) of the 45 kDa Arg-specific proteinase,[1]; [5],4%
same,Activity (%) of the 45 kDa Arg-specific proteinase,"[1]; compound 50.0 mM, incubation also contained 1.0 mM 2-mercaptoethanol",0%
OCCS [2-mercaptoethanol],Activity (%) of the 45 kDa Arg-specific proteinase,[1]; compound 1.0 mM,100%
same,Activity (%) of the 45 kDa Arg-specific proteinase,[1]; compound 10.0 mM,158%
same,Activity (%) of the 45 kDa Arg-specific proteinase,[1]; compound 50.0 mM,189%
N[C@@H](CS)C(=O)O [L-cysteine],Effect on the Arg-specific 45 kDa enzyme (in words),[1],activated
same,activity at 100 µM,[1],183%
same,activity at 1000 µM,[1],320%
same,activity at 10000 µM,[1],487%
O[C@H](CS)[C@H](O)CS (racemic) [Dithiothreitol],activity at 1000 µM,[1],109%
same,activity at 10000 µM,[1],174%
c1cnc2c(c1)ccc1cccnc12 [o-phenanthroline],Activity (%) of the 45 kDa Arg-specific proteinase,[1]; [5],100%
"O=C(O)c1cc[c]([Hg][Cl])cc1 [PCMB, p-chloromercuribenzoic acid]",Activity (%) of the 45 kDa Arg-specific proteinase,[1]; [4],100%
same,Activity (%) of the 45 kDa Arg-specific proteinase,[1]; [5],14%
CC(=O)N[C@@H](CC(C)C)C(=O)N[C@@H](CC(C)C)C(=O)N[C@H](C=O)CCCNC(=N)N [Leupeptin],Effect on the Lys-specific enzyme (in words),[2],not inhibited
same,Effect on the Arg-specific 45 kDa enzyme (in words),[1],inhibited
same,activity at 100 µM,[1],0%
"O=S(=O)(F)Cc1ccccc1 [PMSF, phenylmethyl sulfonyl fluoride]",Effect on the Arg-specific 45 kDa enzyme (in words),[1],not inhibited
same,Activity (%) of the 45 kDa Arg-specific proteinase,[1]; [5],90%
O=C(O)CI [Iodoacetic acid],activity at 1000 µM,[1],82%
same,activity at 10000 µM,[1],19%
Leupeptin (peptide),"Activity (%) (amidolytic activity, leupeptin at 0.1 mM)",[3],0%
